Measurements taken from the NIST ThermoML archive (doi:10.1016/j.tca.2015.09.017).
Numbers after ± are expanded uncertainties.

Conditions: 101.33 kPa, Liquid, Photoacoustic measurements

| Structure (SMILES) | thermal diffusivity (298.15 K) | thermal diffusivity (308.15 K) | thermal diffusivity (318.15 K) | thermal diffusivity (328.15 K) | thermal diffusivity (338.15 K) |
| --- | --- | --- | --- | --- | --- |
| O [water] | 1.49e-07 ± 6e-09 m2/s | 1.53e-07 ± 6e-09 m2/s | 1.56e-07 ± 6e-09 m2/s | 1.59e-07 ± 6e-09 m2/s | 1.61e-07 ± 6e-09 m2/s |
| OCCO [1,2-ethanediol] | 9.84e-08 ± 3.9e-09 m2/s | 9.73e-08 ± 3.9e-09 m2/s | 9.68e-08 ± 3.9e-09 m2/s | 9.49e-08 ± 3.8e-09 m2/s | 9.42e-08 ± 3.8e-09 m2/s |
